Test results published in patent US12545639B2, “3-substituted phenylamidine compounds, preparation and use thereof” (PI INDUSTRIES LTD., priority 2019, dated 2026).

Key:
Rhizoctonia solani = Rhizoctonia solani (rice sheath blight/potato black scurf) in vitro test, radial growth on potato dextrose agar; type: cell-based; settings: 168 h, 300 ppm in potato dextrose agar, 25° C., 60% relative humidity, seven days, read-out: control compared to the untreated check (radial growth)
Botrytis cinerea = Botrytis cinerea (gray mold) in vitro test, radial growth on potato dextrose agar; type: cell-based; settings: 168 h, 300 ppm in potato dextrose agar, 22° C., 90% relative humidity, seven days, read-out: control compared to the untreated check (radial growth)
Alternaria solani = Alternaria solani (early blight of tomato/potato) in vitro test, radial growth on potato dextrose agar; type: cell-based; settings: 168 h, 300 ppm in potato dextrose agar, 25° C., 60% relative humidity, seven days, read-out: control compared to the untreated check (radial growth)
[1] = tested on: Septoria lycopersici/Corynespora cassicola (CORYCA); experiment: Septoria lycopersici/Corynespora cassicola (CORYCA) (leaf spot of tomato) in vitro test, radial growth on potato dextrose agar; type: cell-based; settings: 168 h, 300 ppm in potato dextrose agar, 25° C., 70% relative humidity, seven days, read-out: control compared to the untreated check (radial growth)
Phakopsora pachyrhizi = Phakopsora pachyrhizi test in soybean, preventive, in vivo on plants; settings: in Glycine max, read-out: Efficacy (% control), disease severity compared to the untreated check
Pyricularia oryzae = experiment: microbe, parasite or virus in culture; type: cell-based; settings: 168 h, read-out: control compared to the untreated check (radial growth)

CCN(C)C=Nc1cc(F)cc(N(C)c2cc(F)cc(F)c2)c1C [Compound 84, N′-(3-((3,5-difluorophenyl)(methyl)amino)-5-fluoro-2-methylphenyl)-N-ethyl-N-methylformimidamide]
≥ 70%: inhibition of growth at 300 ppm (Rhizoctonia solani) | inhibition of growth at 300 ppm (Botrytis cinerea) | inhibition of growth at 300 ppm (Alternaria solani) | inhibition of growth at 300 ppm [1] | pest or weed control at 500 ppm (Phakopsora pachyrhizi)

CCN(C)C=Nc1cc(F)cc(Cc2ccccc2)c1C [Compound 149, N′-(3-benzyl-5-fluoro-2-methylphenyl)-N-ethyl-N-methylformimidamide]
≥ 70%: inhibition of growth at 300 ppm (Pyricularia oryzae) | inhibition of growth at 300 ppm (Rhizoctonia solani) | inhibition of growth at 300 ppm (Botrytis cinerea) | inhibition of growth at 300 ppm (Alternaria solani) | inhibition of growth at 300 ppm [1] | pest or weed control at 500 ppm (Phakopsora pachyrhizi)

CCN(C)C=Nc1cc(F)cc(Nc2cccc(F)c2)c1C [Compound 29, N-ethyl-N′-(5-fluoro-3-((3-fluorophenyl)amino)-2-methylphenyl)-N-methylformimidamide]
≥ 70%: inhibition of growth at 300 ppm (Pyricularia oryzae) | inhibition of growth at 300 ppm (Rhizoctonia solani) | inhibition of growth at 300 ppm (Botrytis cinerea) | inhibition of growth at 300 ppm (Alternaria solani) | inhibition of growth at 300 ppm [1] | pest or weed control at 500 ppm (Phakopsora pachyrhizi)

CCN(C)C=Nc1cc(C)cc(Cc2ccccc2)c1Cl [Compound 70, N′-(3-benzyl-2-chloro-5-methylphenyl)-N-ethyl-N-methylformimidamide]
≥ 70%: inhibition of growth at 300 ppm (Pyricularia oryzae) | inhibition of growth at 300 ppm (Rhizoctonia solani) | inhibition of growth at 300 ppm (Botrytis cinerea) | inhibition of growth at 300 ppm (Alternaria solani) | inhibition of growth at 300 ppm [1] | pest or weed control at 500 ppm (Phakopsora pachyrhizi)

CCN(C)C=Nc1cc(Cl)cc(Nc2ccccc2OC(F)(F)F)c1C [Compound 301, N′-(5-chloro-2-methyl-3-((2-(trifluoromethoxy)phenyl)amino)phenyl)-N-ethyl-N-methylformimidamide]
≥ 70%: inhibition of growth at 300 ppm (Pyricularia oryzae) | inhibition of growth at 300 ppm (Rhizoctonia solani) | inhibition of growth at 300 ppm (Botrytis cinerea) | inhibition of growth at 300 ppm (Alternaria solani) | inhibition of growth at 300 ppm [1] | pest or weed control at 500 ppm (Phakopsora pachyrhizi)

CCN(C)C=Nc1cc(Cl)cc(Nc2cccc(C(F)(F)F)n2)c1C [Compound 274, N′-(5-chloro-2-methyl-3-((6-(trifluoromethyl)pyridin-2-yl)amino)phenyl)-N-ethyl-N-methylformimidamide]
≥ 70%: inhibition of growth at 300 ppm (Pyricularia oryzae) | inhibition of growth at 300 ppm (Rhizoctonia solani) | inhibition of growth at 300 ppm (Botrytis cinerea) | inhibition of growth at 300 ppm (Alternaria solani) | inhibition of growth at 300 ppm [1] | pest or weed control at 500 ppm (Phakopsora pachyrhizi)

CCN(C)C=Nc1cc(F)cc(Cc2ccc(Cl)c(F)c2)c1C [Compound 206, N′-(3-(4-chloro-3-fluorobenzyl)-5-fluoro-2-methylphenyl)-N-ethyl-N-methylformimidamide]
≥ 70%: inhibition of growth at 300 ppm (Pyricularia oryzae) | inhibition of growth at 300 ppm (Rhizoctonia solani) | inhibition of growth at 300 ppm (Botrytis cinerea) | inhibition of growth at 300 ppm (Alternaria solani) | inhibition of growth at 300 ppm [1] | pest or weed control at 500 ppm (Phakopsora pachyrhizi)

CCN(C)C=Nc1cc(F)cc(N(C)c2c(C)cccc2F)c1C [Compound 145, N-ethyl-N′-(5-fluoro-3-((2-fluoro-6-methylphenyl)(methyl)amino)-2-methylphenyl)-N-methylformimidamide]
≥ 70%: inhibition of growth at 300 ppm (Pyricularia oryzae) | inhibition of growth at 300 ppm (Rhizoctonia solani) | inhibition of growth at 300 ppm (Botrytis cinerea) | inhibition of growth at 300 ppm (Alternaria solani) | inhibition of growth at 300 ppm [1] | pest or weed control at 500 ppm (Phakopsora pachyrhizi)

CCN(C)C=Nc1cc(F)cc(Cc2cccc([N+](=O)[O-])c2)c1C [Compound 259, N-ethyl-N′-(5-fluoro-2-methyl-3-(3-nitrobenzyl)phenyl)-N-methylformimidamide]
≥ 70%: inhibition of growth at 300 ppm (Pyricularia oryzae) | inhibition of growth at 300 ppm (Rhizoctonia solani) | inhibition of growth at 300 ppm (Botrytis cinerea) | inhibition of growth at 300 ppm (Alternaria solani) | inhibition of growth at 300 ppm [1] | pest or weed control at 500 ppm (Phakopsora pachyrhizi)

CCN(C)C=Nc1cc(F)cc(Cc2cccc(Br)c2)c1C [Compound 205, N′-(3-(3-bromobenzyl)-5-fluoro-2-methylphenyl)-N-ethyl-N-methylformimidamide]
≥ 70%: inhibition of growth at 300 ppm (Pyricularia oryzae) | inhibition of growth at 300 ppm (Rhizoctonia solani) | inhibition of growth at 300 ppm (Botrytis cinerea) | inhibition of growth at 300 ppm (Alternaria solani) | inhibition of growth at 300 ppm [1] | pest or weed control at 500 ppm (Phakopsora pachyrhizi)

CCN(C)C=Nc1cc(C)cc(Cc2cccc(F)c2)c1Cl [Compound 22, N′-(2-chloro-3-(3-fluorobenzyl)-5-methylphenyl)-N-ethyl-N-methylformimidamide]
≥ 70%: inhibition of growth at 300 ppm (Pyricularia oryzae) | inhibition of growth at 300 ppm (Rhizoctonia solani) | inhibition of growth at 300 ppm (Botrytis cinerea) | inhibition of growth at 300 ppm (Alternaria solani) | inhibition of growth at 300 ppm [1] | pest or weed control at 500 ppm (Phakopsora pachyrhizi)

CCN(C)C=Nc1cc(C)cc(N(C)c2cccc(C)c2)c1Cl [Compound 43, N′-(2-chloro-5-methyl-3-(methyl(m-tolyl)amino)phenyl)-N-ethyl-N-methylformimidamide]
≥ 70%: inhibition of growth at 300 ppm (Botrytis cinerea) | inhibition of growth at 300 ppm (Alternaria solani) | inhibition of growth at 300 ppm [1] | pest or weed control at 500 ppm (Phakopsora pachyrhizi)

CCN(C)C=Nc1cc(Cl)cc(N(C)c2ccccc2C)c1C [Compound 191, N′-(5-chloro-2-methyl-3-(methyl(o-tolyl)amino)phenyl)-N-ethyl-N-methylformimidamide]
≥ 70%: inhibition of growth at 300 ppm (Pyricularia oryzae) | inhibition of growth at 300 ppm (Rhizoctonia solani) | inhibition of growth at 300 ppm (Botrytis cinerea) | inhibition of growth at 300 ppm (Alternaria solani) | inhibition of growth at 300 ppm [1] | pest or weed control at 500 ppm (Phakopsora pachyrhizi)

CCN(C)C=Nc1cc(F)cc(Cc2ccccc2Br)c1C [Compound 151, N′-(3-(2-bromobenzyl)-5-fluoro-2-methylphenyl)-N-ethyl-N-methylformimidamide]
≥ 70%: inhibition of growth at 300 ppm (Pyricularia oryzae) | inhibition of growth at 300 ppm (Rhizoctonia solani) | inhibition of growth at 300 ppm (Botrytis cinerea) | inhibition of growth at 300 ppm (Alternaria solani) | inhibition of growth at 300 ppm [1] | pest or weed control at 500 ppm (Phakopsora pachyrhizi)

CCN(C)C=Nc1cc(F)cc(Nc2ccc(F)cc2F)c1C [Compound 76, N′-(3-((2,4-difluorophenyl)amino)-5-fluoro-2-methylphenyl)-N-ethyl-N-methylformimidamide]
≥ 70%: inhibition of growth at 300 ppm (Pyricularia oryzae) | inhibition of growth at 300 ppm (Rhizoctonia solani) | inhibition of growth at 300 ppm (Botrytis cinerea) | inhibition of growth at 300 ppm (Alternaria solani) | inhibition of growth at 300 ppm [1]

CCN(C)C=Nc1cc(C#N)cc(Cc2cccc(F)c2)c1C [Compound 297, N′-(5-cyano-3-(3-fluorobenzyl)-2-methylphenyl)-N-ethyl-N-methylformimidamide]
≥ 70%: inhibition of growth at 300 ppm (Pyricularia oryzae) | inhibition of growth at 300 ppm (Botrytis cinerea) | inhibition of growth at 300 ppm (Alternaria solani) | inhibition of growth at 300 ppm [1] | pest or weed control at 500 ppm (Phakopsora pachyrhizi)

CCN(C)C=Nc1cc(Cl)cc(N(C)c2ccccc2)c1C [Compound 159, N′-(5-chloro-2-methyl-3-(methyl(phenyl)amino)phenyl)-N-ethyl-N-methylformimidamide]
≥ 70%: inhibition of growth at 300 ppm (Pyricularia oryzae) | inhibition of growth at 300 ppm (Botrytis cinerea) | inhibition of growth at 300 ppm (Alternaria solani) | inhibition of growth at 300 ppm [1] | pest or weed control at 500 ppm (Phakopsora pachyrhizi)

CCN(C)C=Nc1cc(F)cc(Cc2cccc(C)c2)c1C [Compound 146, N-ethyl-N′-(5-fluoro-2-methyl-3-(3-methylbenzyl)phenyl)-N-methylformimidamide]
≥ 70%: inhibition of growth at 300 ppm (Pyricularia oryzae) | inhibition of growth at 300 ppm (Rhizoctonia solani) | inhibition of growth at 300 ppm (Botrytis cinerea) | inhibition of growth at 300 ppm (Alternaria solani) | inhibition of growth at 300 ppm [1] | pest or weed control at 500 ppm (Phakopsora pachyrhizi)

CCN(C)C=Nc1cc(F)cc(Cc2ccccc2C)c1C [Compound 148, N-ethyl-N′-(5-fluoro-2-methyl-3-(2-methylbenzyl)phenyl)-N-methylformimidamide]
≥ 70%: inhibition of growth at 300 ppm (Pyricularia oryzae) | inhibition of growth at 300 ppm (Rhizoctonia solani) | inhibition of growth at 300 ppm (Botrytis cinerea) | inhibition of growth at 300 ppm (Alternaria solani) | inhibition of growth at 300 ppm [1] | pest or weed control at 500 ppm (Phakopsora pachyrhizi)

CCN(C)C=Nc1cc(F)cc(Cc2cc(F)cc(OC)c2)c1C [Compound 237, N-ethyl-N′-(5-fluoro-3-(3-fluoro-5-methoxybenzyl)-2-methylphenyl)-N-methylformimidamide]
≥ 70%: inhibition of growth at 300 ppm (Pyricularia oryzae) | inhibition of growth at 300 ppm (Rhizoctonia solani) | inhibition of growth at 300 ppm (Botrytis cinerea) | inhibition of growth at 300 ppm (Alternaria solani) | inhibition of growth at 300 ppm [1] | pest or weed control at 500 ppm (Phakopsora pachyrhizi)

CCN(C)C=Nc1cc(F)cc(N(C)c2cc(C)ccc2Cl)c1C [Compound 117, N′-(3-((2-chloro-5-methylphenyl)(methyl)amino)-5-fluoro-2-methylphenyl)-N-ethyl-N-methylformimidamide]
≥ 70%: inhibition of growth at 300 ppm (Pyricularia oryzae) | inhibition of growth at 300 ppm (Botrytis cinerea) | inhibition of growth at 300 ppm (Alternaria solani) | inhibition of growth at 300 ppm [1] | pest or weed control at 500 ppm (Phakopsora pachyrhizi)

CCN(C)C=Nc1cc(F)cc(N(C)c2cc(C)cc(F)c2)c1C [Compound 119, N-ethyl-N′-(5-fluoro-3-((3-fluoro-5-methylphenyl)(methyl)amino)-2-methylphenyl)-N-methylformimidamide]
≥ 70%: inhibition of growth at 300 ppm (Pyricularia oryzae) | inhibition of growth at 300 ppm (Botrytis cinerea) | inhibition of growth at 300 ppm (Alternaria solani) | inhibition of growth at 300 ppm [1] | pest or weed control at 500 ppm (Phakopsora pachyrhizi)

CCN(C)C=Nc1cc(C#N)cc(Cc2ccccc2)c1C [Compound 308, N′-(3-benzyl-5-cyano-2-methylphenyl)-N-ethyl-N-methylformimidamide]
≥ 70%: inhibition of growth at 300 ppm (Pyricularia oryzae) | inhibition of growth at 300 ppm (Rhizoctonia solani) | inhibition of growth at 300 ppm (Botrytis cinerea) | inhibition of growth at 300 ppm (Alternaria solani) | inhibition of growth at 300 ppm [1]
